Values joined by “and” are separate entries in the source; they are usually repeats but may differ in a detail not shown here. Identical values can stand only once. Bridge positions count the residues as written; N and C are the ends. Square brackets hold non-standard residues; d marks the D form. Peptide text beside a SMILES is read from it. S5 = C=CCCC[C@](C)(N)C(=O)O; Nle = CCCC[C@H](N)C(=O)O; Aib = CC(C)(N)C(=O)O
Assays:
[1] = test system: Influenza B Brisbane/60/2008; test: Cytopathic effect (CPE) inhibition in MDCK cells, neutral red; type: cell-based; conditions: read-out: EC50
[2] = test system: Influenza A H3N2 Influenza A/Brisbane/10/2007; test: microbe, parasite or virus in culture; type: cell-based, influenza A virus
[3] = test system: Influenza B/Brisbane/60/2008; test: microbe, parasite or virus in culture; type: cell-based
[4] = test system: H5N1 A/Hong Kong/213/2003; test: microbe, parasite or virus in culture; type: cell-based, influenza A virus; conditions: read-out: EC50
H5N1 A/Duck/MN/1525/81 = test: microbe, parasite or virus in culture; type: cell-based, influenza A virus; conditions: read-out: EC50
[5] = test system: Influenza A H1N1 Influenza A/Texas/4/2009; test: microbe, parasite or virus in culture; type: cell-based, influenza A virus
[6] = test system: Influenza A H1N1 Influenza A/California/7/2009; test: microbe, parasite or virus in culture; type: cell-based, influenza A virus
H3N2 Perth/16/2009 = test: microbe, parasite or virus in culture; type: cell-based, influenza A virus
H1N1 California/07/2009 = test: microbe, parasite or virus in culture; type: cell-based, influenza A virus
[7] = test system: Influenza B Florida/04/2006; test: Cytopathic effect (CPE) inhibition in MDCK cells, neutral red; type: cell-based; conditions: read-out: EC50
[8] = test system: H1N1 A/Solomon Island/03/2006; type: cell-based, influenza A virus; conditions: read-out: EC50
[9] = test system: influenza virus, various viral strains; type: cell-based
[10] = Plasma PK in a cyno monkey, single subcutaneous dose
in vitro = conditions: dog, CC50
H7N9 A/Anhui/1/2013 = test: microbe, parasite or virus in culture; type: cell-based, influenza A virus; conditions: read-out: EC50
[11] = cynomolgus monkey, sc, 2.25 mg/kg

SMILES: CCCC[C@H](NC(C)=O)C(=O)N[C@@H](CC(=O)O)C(=O)N[C@H](C(=O)N[C@@H](CC(N)=O)C(=O)N[C@@]1(C)CCCC=CCCC[C@@](C)(C(=O)N[C@@H](CC(C)C)C(=O)N[C@@H](CCCCN)C(=O)N[C@H](C(=O)NC(C)(C)C(=O)N[C@@H](C)C(=O)N[C@@H](CCC(N)=O)C(N)=O)C(C)C)NC(=O)[C@H](CC(C)C)NC(=O)[C@H](CC(C)C)NC(=O)[C@H]([C@@H](C)O)NC1=O)C(C)C [AP1, Ac-NleDVN$TLL$LKVAibAQ-NH2] (Ac-[Nle]DVN[S5]TLL[S5]LKV[Aib]AQ-NH2; staple 5-9)
- EC50 [1]: 6.9 µM
- EC50 ([2]; read-out: EC50): > 100 µM
- EC90 ([2]; read-out: EC90): > 100 µM
- EC50 [3]: > 100 µM
- EC90 [3]: > 100 µM
- EC50 [4]: > 100 µM
- EC50 (H5N1 A/Duck/MN/1525/81): 6.3 µM and 6.4 µM
- EC50 ([5]; read-out: EC50): > 100 µM
- EC90 ([5]; read-out: EC90): > 100 µM
- EC50 ([6]; read-out: EC50): > 100 µM
- EC90 ([6]; read-out: EC90): > 100 µM
- EC90 (H3N2 Perth/16/2009): 28 µM
- EC50 (H3N2 Perth/16/2009; read-out: EC50): 12 µM
- EC50 (H1N1 California/07/2009; read-out: EC50): 28 µM
- EC90 (H1N1 California/07/2009; read-out: EC90): > 65 µM
- EC50 [7]: 11 µM
- EC50 [8]: 3 µM and 1.8 µM
- EC90 [9]: > 100 µM
- time at which drug levels were measureable (last time point assessed) ([10]; cyno monkey, single subcutaneous dose 2.25 mg/kg): 96 h
- MRT [10, 11]: 21 h
- half-life [10, 11]: 13 h
- CC50 (in vitro): > 100 µM
- EC50 (H7N9 A/Anhui/1/2013): > 100 µM

Reference: US10059741B2 (priority 2015, dated 2018)
